# In ChEMBL document CHEMBL1149968, “Synthesis and in vitro cytotoxicity of cis-dichloro[(2S,3R,4S)-2-aminomethyl-3,4-(O-isopropylidene)dihydroxy- or -3,4-dihydroxypyrrolidine]platinum(II)” (Bioorg Med Chem Lett, 1996):
# Experiments:
# A549 = experiment: In vitro cytotoxicity against lung cancer A 549 cell lines; assay type: functional, cell-based, Homo sapiens
# L1210 [1] = experiment: In vitro cytotoxicity against Cisplatin sensitive L1210/parent leukemia cell lines.; assay type: functional, cell-based, Mus musculus
# XF498 = experiment: In vitro cytotoxicity against CNS cancer XF 498 cell lines; assay type: functional, cell-based, Homo sapiens
# SK-OV-3 = experiment: In vitro cytotoxicity against ovarian cancer SK-OV-3 cell lines; assay type: functional, cell-based, Homo sapiens
# L1210 [2] = experiment: In vitro cytotoxicity against Cisplatin resistant L1210/CPR leukemia cell lines.; assay type: functional, cell-based, Mus musculus
# [3] = Relative resistance calculated as the ratio of IC50 of resistant sublime to that of IC50 of parent cell line.; assay type: functional
Substance,IC50 (A549) [µM],IC50 (L1210 [1]) [nM],IC50 (XF498) [µM],IC50 (SK-OV-3) [µM],IC50 (L1210 [2]) [µM],Relative resistance [3]
CARBOPLATIN [listing 1 of 2 here],37.7,2000,13.6,13.9,45.3,–
CARBOPLATIN [listing 2 of 2 here],–,–,–,–,–,22.7
CISPLATIN [listing 1 of 2 here],3.2,–,2.9,–,3.4,–
CISPLATIN [listing 2 of 2 here],–,–,–,–,–,34
"cis-Dichloro[(2S,3R,4S)-2-aminomethyl-3,4-(O-isopropylidene)dihydrxypyrrolidine]platinum (II) [listing 1 of 2 here]",10.9,300,6.2,7.8,1.6,–
"cis-Dichloro[(2S,3R,4S)-2-aminomethyl-3,4-(O-isopropylidene)dihydrxypyrrolidine]platinum (II) [listing 2 of 2 here]",–,–,–,–,–,5.3
"cis-Dichloro[(2S,3R,4S)-2-aminomethyl-3,4-dihydroxypyrrolidine]platinum (II) [listing 1 of 2 here]",32.5,1400,14.8,15.4,10.9,–
"cis-Dichloro[(2S,3R,4S)-2-aminomethyl-3,4-dihydroxypyrrolidine]platinum (II) [listing 2 of 2 here]",–,–,–,–,–,7.8
